Experiments:
[1] = system: basal cell carcinoma (BCC); assay: Intralesional treatment of clamp-isolated basal cell carcinoma on the ear lobe (Example 1); format: in vivo, human
Experimental: A person with basal cell carcinoma (one year history of asymptomatic growth) on their left ear lobe was treated by mechanically isolating the basal cell carcinoma (BCC). Diagnosis of BCC was made based on the lesion's clinical presentation as a well-circumscribed pearly nodule with central crusted ulceration (see FIG. 14A) and the results of a shave biopsy (see FIG. 15A). The patient refused surgical therapy.
A chalazion clamp was used to isolate the tissue surrounding the BCC. One fifth unit (0.2 cc×1 unit/cc) of bleomycin in 1% lidocaine was injected into the clamped region (systemic bleomycin concentrations are typically in the range of 0.00023 units/mL or about 1000×lower). […] After 20 minutes, an 18-gauge needle was used to remove most of the injected fluid from the clamped area. The chalazion clamp was then removed.

[2] = typical systemic range, compared with 1 unit/cc injected; cited from earlier work

With bleomycin as the substance, how does the “adverse effects / patient complaints” value ([1]; 0.2 unit intralesional in clamped region, 20 minutes) read?
Its value is “no adverse effects”.

And the “retention of injected agent in the pressure isolated region” value ([1]; chalazion clamp, evidenced by localized raised and stretched area of the skin)?
The value was “remained within the clamped area”.

And the “clinical appearance of the BCC after treatment” value ([1]; patient, left ear lobe, 0.2 cc x 1 unit/cc in 1% lidocaine injected into chalazion-clamped region, removed after 20 minutes, 25-days post-treatment)?
The value was “clinically cured”.

What about the “histology from 4 mm punch biopsy after treatment” value ([1]; post-treatment punch biopsy, FIG. 15B) of the same substance?
The value was “confirm by histology”.

What about the “systemic concentrations typically used” value [2] of the same substance?
The value was about 0.00023 units/mL.

Reference: patent US20160067425A1, “DEVICES AND METHODS FOR TREATING TISSUES AND TISSUE CONDITIONS” (priority 2014, published 2016)
